Legend:
[1] = Displacement of [3H]-YM09151-2 from dopamine D2 receptor (unknown origin) expressed in sheep striatum membranes assessed as high affinity constant after 2 hrs by scintillation counting analysis
[2] = Displacement of [3H]-R-PIA from adenosine A1 receptor (unknown origin) expressed in sheep striatum membranes after 2 hrs by scintillation counting analysis
[3] = Displacement of [3H]-SCH23390 from dopamine D1 receptor (unknown origin) expressed in sheep striatum membranes after […] by scintillation counting analysis
[4] = Displacement of [3H]-YM09151-2 from dopamine D2 receptor (unknown origin) expressed in sheep striatum membranes assessed as low affinity constant after 2 hrs by scintillation counting analysis

Compound | Kd [1] [µM] | Kd [2] [µM] | Kd [3] [µM] | Kd [4] [µM]
CCCC[C@H](NC(=O)[C@H]1CC[C@@H]2c3[nH]c4ccccc4c3CCN2C1)C(=O)N[C@@H](Cc1ccc(O)cc1)C(=O)N[C@@H](CCCCN)C(N)=O | 4.7 | > 100 | 1.2 | –
CCCC[C@H](NC(=O)[C@H]1CC[C@@H]2c3[nH]c4ccccc4c3CCN2C1)C(=O)N[C@@H](Cc1ccc(F)c(F)c1)C(=O)N[C@@H](CCCCN)C(N)=O | 0.19 | > 100 | 1.3 | 8
